From patent US20080004253A1, “Thiazolopyrimidine modulators of TRPV1” (priority 2006, published 2008)

What was measured:
human TRPV1 = target: T1, human TRPV1 (Homo sapiens, UniProt Q8NER1); assay: Functional assay: block of capsaicin-induced Ca2+ influx, human assay (hTRPV1/HEK293, FLIPR); assay type: cell-based; settings: hTRPV1/HEK293 cells, 150 nM capsaicin challenge, Fluo-3 fluorescence; mean; > value = solubility limit in assay medium
T1 construct: expressed in transfected cells; host or cells: HEK293 (hTRPV1/HEK293), zeocin selection
Method in brief: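 HEK293 cells stably expressing human TRPV1, fluo3-loaded, preincubated 30 min with compound (serial 3-fold dilutions from 10 μM, duplicate) in 20 μM Ca2+ buffer. Capsaicin response taken as fluo3 fluorescence change before vs 100 s after agonist; IC50 by non-linear regression, mean values; free base or TFA salt.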

rat TRPV1 = target: T2, rat TRPV1 (Rattus norvegicus, UniProt O35433); assay: Functional assay: block of capsaicin-induced Ca2+ influx, rat assay (rTRPV1/HEK293, FLIPR); assay type: cell-based; settings: rTRPV1/HEK293 cells, capsaicin challenge, Fluo-3 fluorescence; mean; > value = solubility limit in assay medium
T2 construct: expressed in transfected cells; host or cells: HEK293 (rTRPV1/HEK293), geneticin selection
Method in brief: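 Compounds, as free base or TFA salt, tested from 10 μM in three-fold steps on rTRPV1-transfected HEK293 cells, with 30 min preincubation in low-calcium (20 μM) buffer. Capsaicin-evoked Ca2+ influx measured by FLIPR fluo3 signal before and 100 s after addition. Averaged IC50 from non-linear fits.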

T2 sequence (O35433 whole entry): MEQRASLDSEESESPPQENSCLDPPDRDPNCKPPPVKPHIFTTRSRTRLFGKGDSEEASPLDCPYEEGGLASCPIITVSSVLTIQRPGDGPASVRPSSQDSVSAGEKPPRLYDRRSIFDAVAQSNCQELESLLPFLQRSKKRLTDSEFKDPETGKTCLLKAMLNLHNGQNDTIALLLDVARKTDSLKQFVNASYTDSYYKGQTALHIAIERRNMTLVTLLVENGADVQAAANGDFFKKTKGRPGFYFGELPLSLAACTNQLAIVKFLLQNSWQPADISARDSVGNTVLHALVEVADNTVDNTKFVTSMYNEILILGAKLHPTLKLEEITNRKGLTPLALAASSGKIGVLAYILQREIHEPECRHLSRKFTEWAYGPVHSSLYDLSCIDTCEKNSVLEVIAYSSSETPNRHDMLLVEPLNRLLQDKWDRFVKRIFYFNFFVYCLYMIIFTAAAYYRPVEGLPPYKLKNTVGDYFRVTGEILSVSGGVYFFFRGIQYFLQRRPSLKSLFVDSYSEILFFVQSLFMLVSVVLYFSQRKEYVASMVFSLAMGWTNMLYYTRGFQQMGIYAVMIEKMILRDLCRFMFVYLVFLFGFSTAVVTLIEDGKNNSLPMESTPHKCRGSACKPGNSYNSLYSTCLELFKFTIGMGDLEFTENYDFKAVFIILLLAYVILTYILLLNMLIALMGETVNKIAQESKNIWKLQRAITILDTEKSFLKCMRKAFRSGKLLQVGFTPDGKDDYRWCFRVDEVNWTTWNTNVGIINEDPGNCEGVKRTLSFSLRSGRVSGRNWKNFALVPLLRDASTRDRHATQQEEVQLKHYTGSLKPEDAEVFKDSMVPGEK
T1 sequence (Q8NER1 whole entry): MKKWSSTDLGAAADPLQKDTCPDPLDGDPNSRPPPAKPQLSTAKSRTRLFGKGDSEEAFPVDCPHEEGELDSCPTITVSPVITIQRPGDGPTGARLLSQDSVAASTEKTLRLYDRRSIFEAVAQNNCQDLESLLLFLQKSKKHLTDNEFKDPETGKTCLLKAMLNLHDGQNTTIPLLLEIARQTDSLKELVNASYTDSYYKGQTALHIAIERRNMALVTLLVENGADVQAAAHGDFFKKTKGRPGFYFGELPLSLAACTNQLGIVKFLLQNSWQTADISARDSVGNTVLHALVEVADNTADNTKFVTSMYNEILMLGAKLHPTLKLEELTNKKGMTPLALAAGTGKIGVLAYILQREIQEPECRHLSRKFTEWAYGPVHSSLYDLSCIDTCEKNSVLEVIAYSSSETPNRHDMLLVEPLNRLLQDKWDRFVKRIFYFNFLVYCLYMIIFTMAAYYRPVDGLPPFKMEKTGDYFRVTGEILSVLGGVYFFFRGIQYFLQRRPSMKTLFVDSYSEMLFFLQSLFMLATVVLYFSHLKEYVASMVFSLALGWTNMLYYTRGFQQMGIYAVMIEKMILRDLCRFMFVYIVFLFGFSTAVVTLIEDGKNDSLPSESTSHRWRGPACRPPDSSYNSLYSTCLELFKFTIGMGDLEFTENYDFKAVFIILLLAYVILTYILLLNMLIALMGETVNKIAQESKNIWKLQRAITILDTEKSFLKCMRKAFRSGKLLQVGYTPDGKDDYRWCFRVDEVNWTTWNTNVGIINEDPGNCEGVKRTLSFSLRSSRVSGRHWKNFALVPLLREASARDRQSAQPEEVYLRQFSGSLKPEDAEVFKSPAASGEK

Row | SMILES | IC50 (human TRPV1) | IC50 (rat TRPV1)
1 | CSc1ccc(Nc2nc(C)nc3sc(Nc4c(Cl)cccc4Cl)nc23)cn1 [Example 185, N^2-(2,6-Dichloro-phenyl)-5-methyl-N^7-(6-methylsulfanyl-pyridin-3-yl)-thiazolo[5,4-d]pyrimidine-2,7-diamine] | 0.031 µM | 0.032 µM
2 | CN1CCN(c2nc(Nc3ccc(C(F)(F)F)cc3)c3nc(Nc4c(Cl)cccc4Cl)sc3n2)CC1 [Example 187, N^2-(2,6-Dichloro-phenyl)-5-(4-methyl-piperazin-1-yl)-N^7-(4-trifluoromethyl-phenyl)-thiazolo[5,4-d]pyrimidine-2,7-diamine] | 0.809 µM | 1.32 µM
3 | CCN(CC)c1nc(Nc2ccc(C(F)(F)F)cc2)c2nc(Nc3c(Cl)cccc3Cl)sc2n1 [Example 188, N^2-(2,6-Dichloro-phenyl)-N^5,N^5-diethyl-N^7-(4-trifluoromethyl-phenyl)-thiazolo[5,4-d]pyrimidine-2,5,7-triamine] | 0.036 µM | 0.04 µM
4 | CCCCOc1nc(Nc2ccc(C(F)(F)F)cc2)c2nc(Nc3c(Cl)cccc3Cl)sc2n1 [Example 189, 5-Butoxy-N^2-(2,6-dichloro-phenyl)-N^7-(4-trifluoromethyl-phenyl)-thiazolo[5,4-d]pyrimidine-2,7-diamine] | 0.019 µM | 0.008 µM
5 | C[C@H]1COCCN1c1nc(Nc2ccc(C(F)(F)F)cc2)c2nc(Nc3c(Cl)cccc3Cl)sc2n1 [Example 192, (3S)-N^2-(2,6-Dichloro-phenyl)-5-(3-methyl-morpholin-4-yl)-N^7-(4-trifluoromethyl-phenyl)-thiazolo[5,4-d]pyrimidine-2,7-diamine] | 0.063 µM | 0.019 µM
6 | COC[C@@H]1CCCN1c1nc(Nc2ccc(C(F)(F)F)cc2)c2nc(Nc3c(Cl)cccc3Cl)sc2n1 [Example 193, (2S)-N^2-(2,6-Dichloro-phenyl)-5-(2-methoxymethyl-pyrrolidin-1-yl)-N^7-(4-trifluoromethyl-phenyl)-thiazolo[5,4-d]pyrimidine-2,7-diamine] | 0.035 µM | 0.036 µM
7 | COC[C@H]1CCCN1c1nc(Nc2ccc(C(F)(F)F)cc2)c2nc(Nc3c(Cl)cccc3Cl)sc2n1 [Example 194, (2R)-N^2-(2,6-Dichloro-phenyl)-5-(2-methoxymethyl-pyrrolidin-1-yl)-N^7-(4-trifluoromethyl-phenyl)-thiazolo[5,4-d]pyrimidine-2,7-diamine] | 0.133 µM | 0.125 µM
8 | CSc1ccccc1Nc1nc2c(Nc3ccc(C(F)(F)F)cc3)nc(C)nc2s1 [Example 195, 5-Methyl-N^2-(2-methylsulfanyl-phenyl)-N^7-(4-trifluoromethyl-phenyl)-thiazolo[5,4-d]pyrimidine-2,7-diamine] | 0.419 µM | 0.319 µM
9 | CSc1ccccc1Nc1nc2c(Nc3ccc(C(F)(F)F)cc3)ncnc2s1 [Example 196, N^2-(2-Methylsulfanyl-phenyl)-N^7-(4-trifluoromethyl-phenyl)-thiazolo[5,4-d]pyrimidine-2,7-diamine] | 0.064 µM | 0.037 µM
10 | Cc1nc(Nc2ccc(C(F)(F)F)cc2)c2nc(Nc3ccccc3S(C)(=O)=O)sc2n1 [Example 197, N^2-(2-Methanesulfonyl-phenyl)-5-methyl-N^7-(4-trifluoromethylphenyl)-thiazolo[5,4-d]pyrimidine-2,7-diamine] | 0.312 µM | 0.287 µM
11 | CS(=O)(=O)c1ccc(Nc2ncnc3sc(Nc4ccccc4S(C)(=O)=O)nc23)cc1 [Example 198, N^2-(2-Methanesulfonyl-phenyl)-N^7-(4-methanesulfonyl-phenyl)-thiazolo[5,4-d]pyrimidine-2,7-diamine] | 9.74 µM | > 20 µM
12 | CS(=O)(=O)c1ccccc1Nc1nc2c(Nc3ccc(C(F)(F)F)nc3)ncnc2s1 [Example 199, N^2-(2-Methanesulfonyl-phenyl)-N^7-(6-trifluoromethyl-pyridin-3-yl)-thiazolo[5,4-d]pyrimidine-2,7-diamine] | 2.15 µM | 1.08 µM
13 | CS(=O)(=O)c1ccccc1Nc1nc2c(Nc3ccc(S(=O)(=O)C(F)(F)F)cc3)ncnc2s1 [Example 200, N^2-(2-Methanesulfonyl-phenyl)-N^7-(4-trifluoromethanesulfonyl-phenyl)-thiazolo[5,4-d]pyrimidine-2,7-diamine] | 0.386 µM | 0.874 µM
14 | CS(=O)(=O)c1ccccc1Nc1nc2c(Nc3ccc(C(F)(F)F)cc3)ncnc2s1 [Example 201, N^2-(2-Methanesulfonyl-phenyl)-N^7-(4-trifluoromethyl-phenyl)-thiazolo[5,4-d]pyrimidine-2,7-diamine] | 0.257 µM | 0.244 µM
15 | Cc1nc(Nc2ccc(C(F)(F)F)cc2)c2nc(Nc3ccccc3Cl)sc2n1 [Example 202, N^2-(2-Chloro-phenyl)-5-methyl-N^7-(4-trifluoromethyl-phenyl)-thiazolo[5,4-d]pyrimidine-2,7-diamine] | 0.057 µM | 0.058 µM
16 | O=S(=O)(c1ccc(Nc2ncnc3sc(Nc4ccccc4Cl)nc23)cc1)C(F)(F)F [Example 203, N^2-(2-Chloro-phenyl)-N^7-(4-trifluoromethanesulfonyl-phenyl)-thiazolo[5,4-d]pyrimidine-2,7-diamine] | 0.048 µM | 0.076 µM
17 | Clc1cccc(Cl)c1Nc1nc2c(Nc3ccccc3)ncnc2s1 [Example 204, N^2-(2,6-Dichloro-phenyl)-N^7-phenyl-thiazolo[5,4-d]pyrimidine-2,7-diamine] | 0.213 µM | 0.226 µM
18 | Cc1nc(Nc2ccc(C(F)(F)F)cc2)c2nc(Nc3cccc4nsnc34)sc2n1 [Example 205, N^2-Benzo[1,2,5]thiadiazol-4-yl-5-methyl-N^7-(4-trifluoromethyl-phenyl)-thiazolo[5,4-d]pyrimidine-2,7-diamine] | 16.6 µM | 12.5 µM
19 | Cc1nc(Nc2ccc(C(F)(F)F)cc2)c2nc(Nc3ccccc3[N+](=O)[O-])sc2n1 [Example 206, 5-Methyl-N^2-(2-nitro-phenyl)-N^7-(4-trifluoromethyl-phenyl)-thiazolo[5,4-d]pyrimidine-2,7-diamine] | 2.47 µM | 1.71 µM
20 | COC(=O)c1scc(C)c1Nc1nc2c(Nc3ccc(C(F)(F)F)c(Cl)c3)ncnc2s1 [Example 207, 3-[7-(3-Chloro-4-trifluoromethyl-phenylamino)-thiazolo[5,4-d]pyrimidin-2-ylamino]-4-methyl-thiophene-2-carboxylic acid methyl ester] | 0.758 µM | 0.345 µM
21 | Cc1nc(Nc2ccc(C(F)(F)F)cc2)c2nc(Nc3c(C)noc3C)sc2n1 [Example 208, N^2-(3,5-Dimethyl-isoxazol-4-yl)-5-methyl-N^7-(4-trifluoromethyl-phenyl)thiazolo[5,4-d]pyrimidine-2,7-diamine] | 0.401 µM | 0.398 µM
22 | Cc1nc(Nc2ccc(C(C)(C)C)cc2)c2nc(Nc3c(C)noc3C)sc2n1 [Example 209, N^7-(4-tert-Butyl-phenyl)-N^2-(3,5-dimethyl-isoxazol-4-yl)-5-methyl-thiazolo[5,4-d]pyrimidine-2,7-diamine] | 0.269 µM | 0.162 µM
23 | Cc1nc(Nc2ccc(C(F)(F)F)cc2)c2nc(Nc3ncccc3C)sc2n1 [Example 211, 5-Methyl-N^2-(3-methyl-pyridin-2-yl)-N^7-(4-trifluoromethyl-phenyl)-thiazolo[5,4-d]pyrimidine-2,7-diamine] | ≥ 6.67 µM | ≥ 6.67 µM
